Entries after “also recorded” stand apart in the source; their conditions may differ. Like-named read-outs stand apart in the source and are kept apart here.
Legend:
[1] = cited from earlier work
[2] = test system: group of 6 to 8 testers; experiment: Tasting of trans-pellitorin in 11 wt. % sugar solution by a group of testers; type: in vivo; conditions: for sensory impression on tasting: approximately 5 ml swallowed
Experimental: The trans-pellitorin was dissolved in ethanol and the ethanolic solution was then diluted with an 11 wt. % sugar solution (final concentration: c). For tasting, respectively approximately 5 ml of the sugar solution was respectively swallowed.

Compound | sensory impression ([1]; Lebensm.-Wiss. U.-Technol. 1992, 25, 417-421) | sensory impression ([1]; J. Agric. Food Chem. 1981, 29, 115, Fitoterapia 2001, 72, 197) | sensory impression on tasting in the pure state ([1]; pure state, J. Am. Chem. Soc. 1953, 75, 2584-2586) | sensory impression on tasting ([2]; c=10 ppm in 11 wt. % sugar solution) | sensory impression on tasting ([2]; c=20 ppm in 11 wt. % sugar solution) | concentration in the final product at which a saliva inducing effect only is observed, no additional sensory impressions ([2]; final product, e.g. finished preparation) | sensory impression in taste research ([2]; taste research, general statement)
C/C=C/C=C\CC/C=C/C(=O)NCC(C)C [spilanthol, 2E,6Z,8E-decatrienoic acid-N-isobutylamide, reference compound] | strongly salivation inducing and tingly or prickly; also recorded: spicy-hot and strongly numbing as well as an astringent |  |  |  |  |  | 
CCCCC/C=C/C=C/C(=O)NCC(C)C [trans-pellitorin, 2E,4E-decadienoic acid-N-isobutylamide] |  | primarily numbing | besides an elevated saliva flow, a strong burning effect on the tongue | salivation inducing, slightly prickly, not spicy hot | salivation inducing, slightly numbing, slightly fatty, weakly fruity, prickly, persistent, not spicy hot | below 20 ppm | pleasant saliva-inducing and slightly prickly sensory impression, with relatively prolonged effect

Reference: US8063107B2, “Use of trans-pellitorin as flavor substance” (Symrise AG, priority 2002, dated 2011)
